Ki and IC50 data for 23 molecules are collected here from paper PMC3726930, “Synthesis and Biological Activity of N-Sulfonyltripeptides with C-Terminal Arginine as Potential Serine Proteases Inhibitors” (International Journal of Peptide Research and Therapeutics, 2012).

Read-outs that look alike come from different tables or passages of the source. Where a SMILES comes first, the peptide text is derived from it. Where no end group is shown, it is not given here. [ ]: non-standard residue; d: D form. The star is where a group is joined. Nva = CCC[C@H](N)C(=O)O; Ms = CS(=O)(=O)*; CH2Cl = ClC*

Experiment [1] has as its target T1, urokinase (Homo sapiens, UniProt P00749). The experiment in a line: Amidolytic activity of urokinase, substrate S-2444. The format is biochemical. To be noted: Ki calculated from IC50 by Cheng-Prusoff; triplicate; n.i. = no effect at maximum concentration 20 mM; read-out: Ki ± SD Urokinase S-2444. The protocol:
Determination of amidolytic activity was performed as previously described (Okada et al. [1988]). The detailed description of the method is given below. The buffer and the enzyme solution included: • tris buffer—0.6 ml (pH 8.8),
enzyme: urokinase (50 U/ml),
synthetic substrate: S-2444 (0.1 ml, 3 mM); • (b) tris buffer—0.5 ml (pH 8.4),
(§1) Buffer and 0.1 ml of enzyme solution was added to 0.2 ml of examined compound dissolved in 0.15 M NaCl (1–17) (as control 0.15 M NaCl). The mixture was incubated for 3 min at 37 °C, then the synthetic substrate was added. After 20 min of incubation, the reaction was stopped by adding 0.1 ml of 50 % acetic acid, and the absorbance of the released p-nitroaniline was measured at 405 nm (Spekol 1300, AnalyticJena). Every value represents the average of the triplicate determination. IC50 value was considered as the concentration of the inhibitor, which decreased the absorbance at 405 nm by 50 %, compared with the absorbance measured under the same conditions without the inhibitor. Ki was calculated from IC50 based on Cheng–Prusoff equation (Cheng and Prusoff [1973]).

In experiment [2] the test system is DLD cells. As to conditions: 24 h.
In experiment [3] the target is thrombin (Bos taurus, UniProt P00735). The experiment in a line: Amidolytic activity of thrombin, substrate S-2238. Type of experiment: biochemical. To be noted: Ki calculated from IC50 by Cheng-Prusoff, n.i. = no effect at maximum concentration 20 mM, read-out: Ki ± SD Thrombin. The protocol:
(§2) Determination of amidolytic activity was performed as previously described (Okada et al. [1988]). The detailed description of the method is given below. The buffer and the enzyme solution included: • tris buffer—0.6 ml (pH 8.8), […]
as §1, with “synthetic substrate: S-2444 (0.1 ml, 3 mM); • (b) tris buffer—0.5 ml (pH 8.4), enzyme: thrombin (1 U/ml), synthetic substrate: S-2238 (0.2 ml, 0.75 mM); • (c) tris buffer—0.5 ml (pH 7.4), Buffer” for “Buffer”

Experiment [4] deals with T2, plasmin (Homo sapiens, UniProt P00747).
T2 construct: converts the pro-enzyme plasminogen into its active form plasmin; purchased Chromogenix (Milano, Italy)
As to the kind of experiment: Amidolytic activity of plasmin, substrate S-2251. Type of experiment: biochemical. To be noted: Ki calculated from IC50 by Cheng-Prusoff; triplicate; read-out: Ki ± SD Plasmin S-2251. The protocol:
as §2
as §1, with “synthetic substrate: S-2238 (0.2 ml, 0.75 mM); • (c) tris buffer—0.5 ml (pH 7.4), enzyme: plasmin (0.4 U/ml), synthetic substrate: S-2251 (0.2 ml, 3 mM); • (d) […] buffer—0.5 ml (pH 7.5), Buffer” for “Buffer”

Experiment [5] relates to MDA-MB-231 cells. To be noted: 24 h.
The target in experiment [6] is T1, urokinase. The experiment in a line: Urokinase inhibition, literature or earlier data. The format is biochemical. To be noted: author's unpublished data, corresponding to earlier IC50 values.
For experiment [7], the target named is T1, urokinase. To be noted: cited from earlier work.
Setting [8] is: ref Markowska et al. [2008], read-out: IC50 urokinase.

T2 sequence (P00747 581-810 limits assumed): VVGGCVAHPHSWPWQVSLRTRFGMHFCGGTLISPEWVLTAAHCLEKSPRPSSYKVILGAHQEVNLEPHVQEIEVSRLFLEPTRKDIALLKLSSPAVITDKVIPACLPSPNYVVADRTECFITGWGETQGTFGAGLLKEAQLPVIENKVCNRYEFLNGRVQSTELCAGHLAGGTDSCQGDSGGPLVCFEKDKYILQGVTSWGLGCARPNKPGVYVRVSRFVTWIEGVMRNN
T2 sequence (P00747 97-580 partner limits assumed): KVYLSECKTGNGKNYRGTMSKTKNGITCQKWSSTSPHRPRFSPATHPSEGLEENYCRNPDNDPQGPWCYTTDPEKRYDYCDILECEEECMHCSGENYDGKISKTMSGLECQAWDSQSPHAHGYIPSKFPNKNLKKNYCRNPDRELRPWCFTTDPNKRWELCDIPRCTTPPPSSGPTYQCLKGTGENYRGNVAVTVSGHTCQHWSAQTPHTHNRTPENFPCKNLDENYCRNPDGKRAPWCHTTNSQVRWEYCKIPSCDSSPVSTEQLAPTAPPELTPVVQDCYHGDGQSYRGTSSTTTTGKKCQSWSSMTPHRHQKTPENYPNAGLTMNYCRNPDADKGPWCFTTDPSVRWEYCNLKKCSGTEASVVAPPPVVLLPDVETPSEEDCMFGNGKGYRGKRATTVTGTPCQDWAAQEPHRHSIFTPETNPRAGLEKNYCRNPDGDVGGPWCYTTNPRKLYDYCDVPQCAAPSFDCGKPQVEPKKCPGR

For the molecule `C[C@H](NC(=O)[C@@H](CO)NS(=O)(=O)Cc1ccccc1)C(=O)N[C@@H](CCCNC(=N)N)C(=O)NCCCCCN` [Compound 1, PhCH2SO2-D-Ser-Ala-Arg-NH-(CH2)5-NH2], the figures for the Ki in experiment [1], in experiment [3] and in experiment [4] were more than 20000 µM, more than 20000 µM and 2 ± 0.16 µM, respectively. Further, the IC50 was 460 µM in experiment [2] and 480 µM in experiment [5].
`CC(C)c1cc(C(C)C)c(S(=O)(=O)N[C@H](CO)C(=O)N[C@@H](C)C(=O)N[C@@H](CCCNC(=N)N)C(=O)NCCCCCN)c(C(C)C)c1` [Compound 2, 2,4,6-TriiPrPhSO2-D-Ser-Ala-Arg-NH-(CH2)5-NH2]: the Ki in experiment [1] is more than 20000 µM; in experiment [3], more than 20000 µM; in experiment [4], 90.9 ± 7.27 µM. For the same molecule, the results for the IC50 in experiment [2] and in experiment [5] were 390 µM and 480 µM, respectively.
Turning to `C[C@H](NC(=O)[C@@H](CO)NS(C)(=O)=O)C(=O)N[C@@H](CCCNC(=N)N)C(=O)NCCCCCN` [Compound 3, CH3PhSO2-D-Ser-Ala-Arg-NH-(CH2)5-NH2], the IC50 in experiment [2] was 390 µM; in experiment [5] it was 570 µM.
With `N=C(N)NCCC[C@H](NC(=O)CNC(=O)[C@@H](CO)NS(=O)(=O)Cc1ccccc1)C(=O)NCCCCCN` [Compound 4, PhCH2SO2-D-Ser-Gly-Arg-NH-(CH2)5-NH2], the figures for the Ki in experiment [1], in experiment [3] and in experiment [4] were more than 20000 µM, more than 20000 µM and 58.2 ± 4.65 µM, respectively. Also, the IC50 in experiment [2] turned out to be 320 µM; in experiment [5], 580 µM.
With `CC(C)c1cc(C(C)C)c(S(=O)(=O)N[C@H](CO)C(=O)NCC(=O)N[C@@H](CCCNC(=N)N)C(=O)NCCCCCN)c(C(C)C)c1` [Compound 5, 2,4,6-TriiPrPhSO2-D-Ser-Gly-Arg-NH-(CH2)5-NH2], the Ki is 44.6 ± 3.57 µM in experiment [1], more than 20000 µM in experiment [3] and 56.4 ± 4.51 µM in experiment [4]. Besides, the results for the IC50 in experiment [2] and in experiment [5] were 150 µM and 510 µM, respectively.
As to `CS(=O)(=O)N[C@H](CO)C(=O)NCC(=O)N[C@@H](CCCNC(=N)N)C(=O)NCCCCCN` [Compound 6, CH3PhSO2-D-Ser-Gly-Arg-NH-(CH2)5-NH2], the IC50 in experiment [2] came to 260 µM; in experiment [5], 450 µM.
As for `CCC[C@H](NC(=O)[C@@H](CO)NS(=O)(=O)Cc1ccccc1)C(=O)N[C@@H](CCCNC(=N)N)C(=O)NCCCCCN` [Compound 7, PhCH2SO2-D-Ser-NVa-Arg-NH-(CH2)5-NH2], the Ki was more than 20000 µM in experiment [1], more than 20000 µM in experiment [3] and 112 ± 8.95 µM in experiment [4]. The IC50 in experiment [2] worked out at 340 µM; in experiment [5], 680 µM.
On to `CCC[C@H](NC(=O)[C@@H](CO)NS(=O)(=O)c1c(C(C)C)cc(C(C)C)cc1C(C)C)C(=O)N[C@@H](CCCNC(=N)N)C(=O)NCCCCCN` [Compound 8, 2,4,6-TriiPrPhSO2-D-Ser-NVa-Arg-NH-(CH2)5-NH2], for which the Ki in experiment [1] is more than 20000 µM; in experiment [3], more than 20000 µM; in experiment [4] it was 52.7 ± 4.22 µM. Also, the values for the IC50 in experiment [2] and in experiment [5] were 330 µM and 660 µM, respectively.
For `CCC[C@H](NC(=O)[C@@H](CO)NS(C)(=O)=O)C(=O)N[C@@H](CCCNC(=N)N)C(=O)NCCCCCN` [Compound 9, CH3PhSO2-D-Ser-NVa-Arg-NH-(CH2)5-NH2], the IC50 was found to be 50 µM in experiment [2] and 620 µM in experiment [5].
As to `N=C(N)NCCC[C@H](NC(=O)CNC(=O)[C@@H](CO)NS(=O)(=O)Cc1ccccc1)C(=O)O` [Compound 10, PhCH2SO2-D-Ser-Gly-Arg-OH], the values for the Ki in experiment [1], in experiment [3] and in experiment [4] were 5.4 ± 0.43 µM, 0.97 ± 0.08 µM and 103 ± 8.22 µM, respectively. Besides, the IC50 in experiment [2] came out at 5 µM; in experiment [5] it was 640 µM.
As to `CC(C)c1cc(C(C)C)c(S(=O)(=O)N[C@H](CO)C(=O)NCC(=O)N[C@@H](CCCNC(=N)N)C(=O)O)c(C(C)C)c1` [Compound 11, 2,4,6-TriiPrPhSO2-D-Ser-Gly-Arg-OH], the Ki was 15.8 ± 1.27 µM in experiment [1], more than 20000 µM in experiment [3] and 89.1 ± 7.13 µM in experiment [4]. Further, the IC50 in experiment [2] was 110 µM; in experiment [5], 570 µM.
Regarding `CCC[C@H](NC(=O)[C@@H](CO)NS(=O)(=O)Cc1ccccc1)C(=O)N[C@@H](CCCNC(=N)N)C(=O)O` [Compound 13, PhCH2SO2-D-Ser-NVa-Arg-OH], the results for the Ki in experiment [1], in experiment [3] and in experiment [4] were more than 20000 µM, 0.82 ± 0.06 µM and 13.6 ± 1.09 µM, respectively. The results for the IC50 in experiment [2] and in experiment [5] were 180 µM and 650 µM, respectively.
On to `CCC[C@H](NC(=O)[C@@H](CO)NS(=O)(=O)c1c(C(C)C)cc(C(C)C)cc1C(C)C)C(=O)N[C@@H](CCCNC(=N)N)C(=O)O` [Compound 14, 2,4,6-TriiPrPhSO2-D-Ser-NVa-Arg-OH], for which the IC50 in experiment [2] was determined as 220 µM; in experiment [5], 590 µM.
Regarding `CCC[C@H](NC(=O)[C@@H](CO)NS(C)(=O)=O)C(=O)N[C@@H](CCCNC(=N)N)C(=O)O` [Compound 15, CH3PhSO2-D-Ser-NVa-Arg-OH] (Ms-[dS]-[Nva]-Arg-OH; N-terminus and C-terminus assumed), the Ki in experiment [1] was more than 20000 µM; in experiment [3], more than 20000 µM; in experiment [4] it was 167 ± 13.4 µM. The IC50 in experiment [2] is 270 µM; in experiment [5], 650 µM.
In the case of `CCC[C@H](NC(=O)[C@H](N)CO)C(=O)N[C@@H](CCCNC(=N)N)C(=O)NCCCCCN` [Compound 16, H-D-Ser-NVa-Arg-NH-(CH2)5-NH2], the Ki in experiment [1] is more than 20000 µM; in experiment [3], more than 20000 µM; in experiment [4], 137 ± 11 µM. Moreover, the IC50 in experiment [2] was 260 µM; in experiment [5], 490 µM.
Turning to `N=C(N)NCCC[C@H](NC(=O)CNC(=O)[C@H](N)CO)C(=O)NCCCCCN` [Compound 17, H-D-Ser-Gly-Arg-NH-(CH2)5-NH2], the Ki is more than 20000 µM in experiment [1], more than 20000 µM in experiment [3] and 139 ± 11.1 µM in experiment [4]. For the same molecule, the figures for the IC50 in experiment [2] and in experiment [5] were 250 µM and 510 µM, respectively.
Molecule `C[C@H](NC(=O)[C@H](N)CO)C(=O)N[C@@H](CCCNC(=N)N)C(=O)O` [H-D-Ser-Ala-Arg-OH] (H-[dS]-Ala-Arg-OH) had a Ki in experiment [6] of 180 µM. Besides, in experiment [7] (setting [8]), the IC50 is 2000 µM.
`N=C(N)NCCC[C@H](NC(=O)CNC(=O)[C@H](N)CO)C(=O)O` [H-D-Ser-Gly-Arg-OH] (H-[dS]-Gly-Arg-OH) registered a Ki in experiment [6] of 90 µM. Moreover, the IC50 in experiment [7] (setting [8]) was 1000 µM.
Take Glu-Gly-Arg-CH2Cl: the Ki in experiment [7] (ref Lijnen et al. [1987]) is 5 µM.
On to H-D-Ser-Ala-Arg-NH-(CH2)5-NH2, for which the Ki in experiment [7] (ref Markowska et al. [2010]) is 6.3 µM.
Turning to H-D-Ser-NVa-Arg-OH, in experiment [7] (ref Markowska et al. [2011]), the Ki is 0.85 µM.
On to phenethylsulfonyl-D-Ser-Ala-Arg-H, for which the IC50 in experiment [7] (ref Tamura et al. [2000], read-out: IC50 uPA) was 0.0031 µM.
As for α-tolyl-SO2-D-Ser-Ala-Arg-OH, the Ki in experiment [7] (ref Markowska et al. [2010]) was 24 µM.
